Reference: US8637537B2, “Serine/threonine kinase inhibitors” (Genentech, Inc., priority 2011, dated 2014)

molecular target: T1, human recombinant GST-PAK1-KD protein (Homo sapiens, UniProt Q13153); experiment: GST-PAK1-KD (kinase domain) biochemical assay, microfluidic mobility shift; conditions: not given
T1 construct: residues #249-545 of human PAK1, UniProtKP/Swiss Q13153; His6 (N); made in house; host or cells: Sf9 insect cells, pAcGP67 baculovirus expression vector
Procedure: Activity of human recombinant GST-PAK1-KD protein was assessed in vitro assay by observing the phosphorylation of a fluorogenic peptide substrate.
The peptide substrate is a consensus sequence based on various PAK1 substrates reported in the scientific literature. […] Incubations were carried out at 22° C. in MatriCal MP101 384-well Metriplates™. […] Following the 30-minute incubation, the assay mixtures were quenched by the addition of 3 μL of 250 mM EDTA, and the substrate and phosphorylated product were separated by capillary electrophoresis and detected using LabChip® Caliper 3000 (Caliper Life Sciences).

T1 sequence (Q13153 249-545): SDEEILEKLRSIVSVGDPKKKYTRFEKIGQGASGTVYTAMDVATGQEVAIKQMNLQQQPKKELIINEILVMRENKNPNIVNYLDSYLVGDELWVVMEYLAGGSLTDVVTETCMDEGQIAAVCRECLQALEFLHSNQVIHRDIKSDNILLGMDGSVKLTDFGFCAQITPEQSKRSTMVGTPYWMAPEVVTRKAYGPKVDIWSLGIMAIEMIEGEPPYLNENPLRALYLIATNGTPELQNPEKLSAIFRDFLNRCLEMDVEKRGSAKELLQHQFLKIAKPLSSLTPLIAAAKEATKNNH

| SMILES | Ki [nM] |
| --- | --- |
| c1cc(Nc2cc(C3CC3)[nH]n2)nc(NCc2ccc3[nH]cnc3c2)n1 [I-13, N^2-((1H-Benzo[d]imidazol-5-yl)methyl)-N^4-(5-cyclopropyl-1H-pyrazol-3-yl)pyrimidine-2,4-diamine] | < 50 |
| c1cc(Nc2cc(C3CC3)[nH]n2)nc(NCc2ccc3[nH]ccc3c2)n1 [I-15, N^2-((1H-Indol-5-yl)methyl)-N^4-(5-cyclopropyl-1H-pyrazol-3-yl)pyrimidine-2,4-diamine] | < 50 |

same assay, conditions: Ki, Table I, PAK1 Ki class

| SMILES | Ki [nM] |
| --- | --- |
| Clc1c(CNc2nccc(Nc3cc(C4CC4)[nH]n3)n2)ccc2[nH]cnc12 [I-3, N^2-[(4-Chloro-1H-benzimidazol-5-yl)methyl]-N^4-(5-cyclopropyl-1H-pyrazol-3-yl)pyrimidine-2,4-diamine] | < 50 |
| C[C@H](Nc1nccc(Nc2cc(C3CC3)[nH]n2)n1)c1ccc2[nH]cnc2c1 [I-5, N^2-[(1S)-1-(1H-Benzimidazol-5-yl)ethyl]-N^4-(5-cyclopropyl-1H-pyrazol-3-yl)pyrimidine-2,4-diamine] | < 50 |

same assay, conditions: Table I, PAK1 Ki class; read-out: Ki

| SMILES | Ki [nM] |
| --- | --- |
| C[C@H](Nc1nccc(Nc2cc(C3CC3(F)F)[nH]n2)n1)c1ccc2[nH]ccc2c1 (mixture of isomers) [I-66, N^2—((S)-1-(1H-indol-5-yl)ethyl)-N^4-(5-(2,2-difluorocyclopropyl)-1H-pyrazol-3-yl)pyrimidine-2,4-diamine] | 50 to 250 |
| c1ccc([C@@H]2C[C@H]2c2cc(Nc3ccnc(NCc4ccc5[nH]cnc5c4)n3)n[nH]2)cc1 (racemic) [I-27, N^2-(1H-Benzimidazol-5-ylmethyl)-N^4-[5-[(trans)-2-phenylcyclopropyl]-1H-pyrazol-3-yl]pyrimidine-2,4-diamine] | 50 to 250 |
| c1ccc([C@@H]2C[C@H]2c2cc(Nc3ccnc(NCc4cccc5[nH]ccc45)n3)n[nH]2)cc1 (racemic) [I-57, N^2-((1H-indol-4-yl)methyl)-N^4-(5-((trans)-2-phenylcyclopropyl)-1H-pyrazol-3-yl)pyrimidine-2,4-diamine] | 250 to 1000 |
| F[C@@H]1C[C@H]1c1cc(Nc2ccnc(NCc3cccc4[nH]ccc34)n2)n[nH]1 (racemic) [I-80, trans-N^2-((1H-indol-4-yl)methyl)-N^4-(5-(2-fluorocyclopropyl)-1H-pyrazol-3-yl)pyrimidine-2,4-diamine] | < 50 |
| F[C@@H]1C[C@@H]1c1cc(Nc2ccnc(NCc3cccc4[nH]ccc34)n2)n[nH]1 (racemic) [I-81] | 50 to 250 |
| Fc1ccccc1[C@H]1C[C@@H]1c1cc(Nc2ccnc(NCc3cccc4[nH]ccc34)n2)n[nH]1 (racemic) [I-118, N^2-((1H-indol-4-yl)methyl)-N^4-(5-(trans-2-(2-fluorophenyl)cyclopropyl)-1H-pyrazol-3-yl)pyrimidine-2,4-diamine] | 250 to 1000 |
| C[C@H](Nc1nccc(Nc2cc([C@@H]3C[C@@H]3F)[nH]n2)n1)c1ccc2[nH]cnc2c1 (single isomer, unassigned) [I-67] | < 50 |
| C[C@H](Nc1nccc(Nc2cc([C@H]3C[C@@H]3c3ccccc3F)[nH]n2)n1)c1ccc2[nH]cnc2c1 (stereo in doubt) [I-23, N^2—((S)-1-(1H-benzo[d]imidazol-5-yl)ethyl)-N^4-(5-((trans)-2-(2-fluorophenyl)cyclopropyl)-1H-pyrazol-3-yl)pyrimidine-2,4-diamine] | 50 to 250 |
| C[C@H](Nc1nccc(Nc2cc([C@H]3C[C@@H]3c3ccccc3)[nH]n2)n1)c1ccc2[nH]cnc2c1 (stereo in doubt) [I-24, N^2—((S)-1-(1H-benzo[d]imidazol-5-yl)ethyl)-N^4-(5-((trans)-2-phenylcyclopropyl)-1H-pyrazol-3-yl)pyrimidine-2,4-diamine] | 50 to 250 |
| C[C@H](Nc1nccc(Nc2cc(C3CCC3)[nH]n2)n1)c1ccc2[nH]cnc2c1 [I-1, (S)—N^2-(1-(1H-benzo[d]imidazol-5-yl)ethyl)-N^4-(5-cyclobutyl-1H-pyrazol-3-yl)pyrimidine-2,4-diamine] | < 50 |
| C[C@H](Nc1nccc(Nc2cc(C3CCCC3)[nH]n2)n1)c1ccc2[nH]cnc2c1 [I-2, (S)—N^2-(1-(1H-benzo[d]imidazol-5-yl)ethyl)-N^4-(5-cyclopentyl-1H-pyrazol-3-yl)pyrimidine-2,4-diamine] | < 50 |
| Cc1cc(Nc2cc(C3CC3)[nH]n2)nc(N[C@@H](C)c2ccc3[nH]cnc3c2)n1 [I-4, (S)—N^2-(1-(1H-benzo[d]imidazol-5-yl)ethyl)-N^4-(5-cyclopropyl-1H-pyrazol-3-yl)-6-methylpyrimidine-2,4-diamine] | 50 to 250 |
| CC[C@H](Nc1nccc(Nc2cc(C3CC3)[nH]n2)n1)c1ccc2[nH]cnc2c1 [I-6, N^2-[(1S)-1-(1H-benzimidazol-5-yl)propyl]-N^4-(5-cyclopropyl-1H-pyrazol-3-yl)pyrimidine-2,4-diamine] | < 50 |
| C[C@@H](c1ccc2[nH]cnc2c1)N(C)c1nccc(Nc2cc(C3CC3)[nH]n2)n1 [I-9, (S)—N^2-(1-(1H-benzo[d]imidazol-5-yl)ethyl)-N^4-(5-cyclopropyl-1H-pyrazol-3-yl)-N^2-methylpyrimidine-2,4-diamine] | < 50 |
| Cc1cc(Nc2cc(C3CC3)[nH]n2)nc(NCc2ccc3[nH]cnc3c2)n1 [I-10, N^2-((1H-benzo[d]imidazol-5-yl)methyl)-N^4-(5-cyclopropyl-1H-pyrazol-3-yl)-6-methylpyrimidine-2,4-diamine] | < 50 |
| CN(Cc1ccc2[nH]cnc2c1)c1nccc(Nc2cc(C3CC3)[nH]n2)n1 [I-12, N^2-((1H-Benzo[d]imidazol-5-yl)methyl)-N^4-(5-cyclopropyl-1H-pyrazol-3-yl)-N^2-methylpyrimidine-2,4-diamine] | < 50 |
| C[C@H](Nc1nccc(Nc2cc(C3CCOC3)[nH]n2)n1)c1ccc2[nH]cnc2c1 (stereo partly drawn) [I-14, N^2—((S)-1-(1H-benzo[d]imidazol-5-yl)ethyl)-N^4-(5-(tetrahydrofuran-3-yl)-1H-pyrazol-3-yl)pyrimidine-2,4-diamine] | < 50 |
| Cc1c(CNc2nccc(Nc3cc(C4CC4)[nH]n3)n2)ccc2[nH]cnc12 [I-16, N^4-(5-Cyclopropyl-1H-pyrazol-3-yl)-N^2-((4-methyl-1H-benzo[d]imidazol-5-yl)methyl)pyrimidine-2,4-diamine] | 50 to 250 |
| CC(C)(Nc1nccc(Nc2cc(C3CC3)[nH]n2)n1)c1ccc2[nH]cnc2c1 [I-17, N^2-(2-(1H-Benzo[d]imidazol-5-yl)propan-2-yl)-N^4-(5-cyclopropyl-1H-pyrazol-3-yl)pyrimidine-2,4-diamine] | 50 to 250 |
| C[C@H](Nc1nc(Nc2cc(C3CC3)[nH]n2)cc(C(F)(F)F)n1)c1ccc2[nH]ccc2c1 [I-18, (S)—N^2-(1-(1H-indol-5-yl)ethyl)-N^4-(5-cyclopropyl-1H-pyrazol-3-yl)-6-(trifluoromethyl) pyrimidine-2,4-diamine] | 50 to 250 |
| Cc1cc(Nc2cc(C3CC3)[nH]n2)nc(NCc2ccc3[nH]ccc3c2Cl)n1 [I-19, N^2-((4-chloro-1H-indol-5-yl)methyl)-N^4-(5-cyclopropyl-1H-pyrazol-3-yl)-6-methylpyrimidine-2,4-diamine] | 50 to 250 |
| Clc1c(CNc2nccc(Nc3cc(C4CC4)[nH]n3)n2)ccc2[nH]ccc12 [I-20, N^2-((4-chloro-1H-indol-5-yl)methyl)-N^4-(5-cyclopropyl-1H-pyrazol-3-yl)pyrimidine-2,4-diamine] | 50 to 250 |
| C[C@H](Nc1nccc(Nc2cc(OCc3ccccc3)[nH]n2)n1)c1ccc2[nH]cnc2c1 [I-21, N^2-[(1S)-1-(1H-Benzimidazol-5-yl)ethyl]-N^4-(5-benzyloxy-1H-pyrazol-3-yl)pyrimidine-2,4-diamine] | 50 to 250 |
